Assay results: the supplement of paper PMC8612539
≈ marks a conversion by molar mass, not a printed value.

System: Mannheimia haemolytica
Experiment: minimum inhibitory concentration (MIC)
Description: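 Broth microdilution MIC (Sensititre BOPO7F bovine plate, CLSI methods) of 19 antimicrobials against field isolates of P. multocida, M. haemolytica, H. somni (deep nasopharyngeal swabs) and E. coli, Enterococcus spp. (rectal swabs) from weaned dairy heifers. Incubation 16-24 h at 35 C. MIC is the lowest concentration preventing visible growth. Values with <= or > lie at the tested range limits. Trimethoprim-sulfamethoxazole is given as the trimethoprim component of a 1:19 mixture.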

## CN[C@@H]1[C@H](O)[C@H](NC)[C@H]2O[C@@]3(O)C(=O)C[C@@H](C)O[C@H]3O[C@@H]2[C@H]1O [Spectinomycin]
Isolate (source animal id): 8
  minimum inhibitory concentration: 32 µg/mL (≈ 96.3 µM)
Isolate (source animal id): 13
  minimum inhibitory concentration: 32 µg/mL (≈ 96.3 µM)
Isolate (source animal id): 18
  minimum inhibitory concentration: 32 µg/mL (≈ 96.3 µM)
Isolate (source animal id): 21
  minimum inhibitory concentration: 32 µg/mL (≈ 96.3 µM)
Isolate (source animal id): 25
  minimum inhibitory concentration: 32 µg/mL (≈ 96.3 µM)
Isolate (source animal id): 27
  minimum inhibitory concentration: 32 µg/mL (≈ 96.3 µM)
Isolate (source animal id): 28
  minimum inhibitory concentration: > 64 µg/mL
Isolate (source animal id): 30
  minimum inhibitory concentration: 32 µg/mL (≈ 96.3 µM)
Isolate (source animal id): 31
  minimum inhibitory concentration: > 64 µg/mL
Isolate (source animal id): 32
  minimum inhibitory concentration: 32 µg/mL (≈ 96.3 µM)
Isolate (source animal id): 34
  minimum inhibitory concentration: 32 µg/mL (≈ 96.3 µM)
Isolate (source animal id): 36
  minimum inhibitory concentration: 32 µg/mL (≈ 96.3 µM)
Isolate (source animal id): 37
  minimum inhibitory concentration: 32 µg/mL (≈ 96.3 µM)
Isolate (source animal id): 40
  minimum inhibitory concentration: 32 µg/mL (≈ 96.3 µM)
Isolate (source animal id): 41
  minimum inhibitory concentration: 32 µg/mL (≈ 96.3 µM)
Isolate (source animal id): 43
  minimum inhibitory concentration: 32 µg/mL (≈ 96.3 µM)
Isolate (source animal id): 46
  minimum inhibitory concentration: 32 µg/mL (≈ 96.3 µM)
Isolate (source animal id): 49
  minimum inhibitory concentration: 32 µg/mL (≈ 96.3 µM)
Isolate (source animal id): 50
  minimum inhibitory concentration: 32 µg/mL (≈ 96.3 µM)
Isolate (source animal id): 51
  minimum inhibitory concentration: 32 µg/mL (≈ 96.3 µM)
Isolate (source animal id): 52
  minimum inhibitory concentration: 32 µg/mL (≈ 96.3 µM)
Isolate (source animal id): 53
  minimum inhibitory concentration: 32 µg/mL (≈ 96.3 µM)
Isolate (source animal id): 55
  minimum inhibitory concentration: 32 µg/mL (≈ 96.3 µM)
Isolate (source animal id): 56
  minimum inhibitory concentration: 32 µg/mL (≈ 96.3 µM)
Isolate (source animal id): 57
  minimum inhibitory concentration: > 64 µg/mL
Isolate (source animal id): 100
  minimum inhibitory concentration: > 64 µg/mL
Isolate (source animal id): 103
  minimum inhibitory concentration: 32 µg/mL (≈ 96.3 µM)
Isolate (source animal id): 107
  minimum inhibitory concentration: 32 µg/mL (≈ 96.3 µM)
Isolate (source animal id): 108
  minimum inhibitory concentration: > 64 µg/mL
Isolate (source animal id): 112
  minimum inhibitory concentration: 32 µg/mL (≈ 96.3 µM)
Isolate (source animal id): 113
  minimum inhibitory concentration: > 64 µg/mL
Isolate (source animal id): 121
  minimum inhibitory concentration: 32 µg/mL (≈ 96.3 µM)
Isolate (source animal id): 122
  minimum inhibitory concentration: 32 µg/mL (≈ 96.3 µM)
Isolate (source animal id): 123
  minimum inhibitory concentration: > 64 µg/mL
Isolate (source animal id): 126
  minimum inhibitory concentration: 32 µg/mL (≈ 96.3 µM)
Isolate (source animal id): 133
  minimum inhibitory concentration: 32 µg/mL (≈ 96.3 µM)
Isolate (source animal id): 135
  minimum inhibitory concentration: > 64 µg/mL
Isolate (source animal id): 138
  minimum inhibitory concentration: 32 µg/mL (≈ 96.3 µM)
Isolate (source animal id): 141
  minimum inhibitory concentration: > 64 µg/mL
Isolate (source animal id): 142
  minimum inhibitory concentration: 32 µg/mL (≈ 96.3 µM)
Isolate (source animal id): 145
  minimum inhibitory concentration: 16 µg/mL (≈ 48.1 µM)
Isolate (source animal id): 149
  minimum inhibitory concentration: 32 µg/mL (≈ 96.3 µM)
Isolate (source animal id): 151
  minimum inhibitory concentration: 32 µg/mL (≈ 96.3 µM)
Isolate (source animal id): 152
  minimum inhibitory concentration: 16 µg/mL (≈ 48.1 µM)
Isolate (source animal id): 154
  minimum inhibitory concentration: 32 µg/mL (≈ 96.3 µM)
Isolate (source animal id): 159
  minimum inhibitory concentration: 16 µg/mL (≈ 48.1 µM)
Isolate (source animal id): 162
  minimum inhibitory concentration: 16 µg/mL (≈ 48.1 µM)
Isolate (source animal id): 170
  minimum inhibitory concentration: 32 µg/mL (≈ 96.3 µM)
Isolate (source animal id): 171
  minimum inhibitory concentration: 32 µg/mL (≈ 96.3 µM)
Isolate (source animal id): 172
  minimum inhibitory concentration: 32 µg/mL (≈ 96.3 µM)
Isolate (source animal id): 173
  minimum inhibitory concentration: 32 µg/mL (≈ 96.3 µM)
Isolate (source animal id): 179
  minimum inhibitory concentration: 32 µg/mL (≈ 96.3 µM)
Isolate (source animal id): 180
  minimum inhibitory concentration: 32 µg/mL (≈ 96.3 µM)
Isolate (source animal id): 183
  minimum inhibitory concentration: 32 µg/mL (≈ 96.3 µM)
Isolate (source animal id): 186
  minimum inhibitory concentration: 32 µg/mL (≈ 96.3 µM)
Isolate (source animal id): 187
  minimum inhibitory concentration: 32 µg/mL (≈ 96.3 µM)
Isolate (source animal id): 188
  minimum inhibitory concentration: 32 µg/mL (≈ 96.3 µM)
Isolate (source animal id): 190
  minimum inhibitory concentration: 32 µg/mL (≈ 96.3 µM)
Isolate (source animal id): 191
  minimum inhibitory concentration: 32 µg/mL (≈ 96.3 µM)
Isolate (source animal id): 192
  minimum inhibitory concentration: 32 µg/mL (≈ 96.3 µM)
Isolate (source animal id): 201
  minimum inhibitory concentration: 32 µg/mL (≈ 96.3 µM)
Isolate (source animal id): 202
  minimum inhibitory concentration: 32 µg/mL (≈ 96.3 µM)
Isolate (source animal id): 209
  minimum inhibitory concentration: 32 µg/mL (≈ 96.3 µM)
Isolate (source animal id): 211
  minimum inhibitory concentration: 32 µg/mL (≈ 96.3 µM)
Isolate (source animal id): 220
  minimum inhibitory concentration: 32 µg/mL (≈ 96.3 µM)
Isolate (source animal id): 221
  minimum inhibitory concentration: 32 µg/mL (≈ 96.3 µM)
Isolate (source animal id): 223
  minimum inhibitory concentration: ≤ 8 µg/mL
Isolate (source animal id): 233
  minimum inhibitory concentration: 32 µg/mL (≈ 96.3 µM)
Isolate (source animal id): 237
  minimum inhibitory concentration: 32 µg/mL (≈ 96.3 µM)
Isolate (source animal id): 241
  minimum inhibitory concentration: 32 µg/mL (≈ 96.3 µM)
Isolate (source animal id): 252
  minimum inhibitory concentration: 32 µg/mL (≈ 96.3 µM)
Isolate (source animal id): 253
  minimum inhibitory concentration: > 64 µg/mL
Isolate (source animal id): 259
  minimum inhibitory concentration: 32 µg/mL (≈ 96.3 µM)
Isolate (source animal id): 260
  minimum inhibitory concentration: > 64 µg/mL
Isolate (source animal id): 262
  minimum inhibitory concentration: 32 µg/mL (≈ 96.3 µM)
Isolate (source animal id): 282
  minimum inhibitory concentration: 32 µg/mL (≈ 96.3 µM)
Isolate (source animal id): 287
  minimum inhibitory concentration: 32 µg/mL (≈ 96.3 µM)
Isolate (source animal id): 288
  minimum inhibitory concentration: 32 µg/mL (≈ 96.3 µM)
Isolate (source animal id): 291
  minimum inhibitory concentration: 32 µg/mL (≈ 96.3 µM)
Isolate (source animal id): 293
  minimum inhibitory concentration: 16 µg/mL (≈ 48.1 µM)
Isolate (source animal id): 298
  minimum inhibitory concentration: 16 µg/mL (≈ 48.1 µM)
Isolate (source animal id): 299
  minimum inhibitory concentration: 32 µg/mL (≈ 96.3 µM)
Isolate (source animal id): 300
  minimum inhibitory concentration: 32 µg/mL (≈ 96.3 µM)
Isolate (source animal id): 302
  minimum inhibitory concentration: 32 µg/mL (≈ 96.3 µM)
Isolate (source animal id): 304
  minimum inhibitory concentration: 32 µg/mL (≈ 96.3 µM)
Isolate (source animal id): 306
  minimum inhibitory concentration: 32 µg/mL (≈ 96.3 µM)
Isolate (source animal id): 308
  minimum inhibitory concentration: 32 µg/mL (≈ 96.3 µM)
Isolate (source animal id): 309
  minimum inhibitory concentration: 32 µg/mL (≈ 96.3 µM)
Isolate (source animal id): 313
  minimum inhibitory concentration: 16 µg/mL (≈ 48.1 µM)
Isolate (source animal id): 318
  minimum inhibitory concentration: 16 µg/mL (≈ 48.1 µM)
Isolate (source animal id): 320
  minimum inhibitory concentration: 32 µg/mL (≈ 96.3 µM)
Isolate (source animal id): 321
  minimum inhibitory concentration: 16 µg/mL (≈ 48.1 µM)
Isolate (source animal id): 323
  minimum inhibitory concentration: 32 µg/mL (≈ 96.3 µM)
Isolate (source animal id): 324
  minimum inhibitory concentration: 16 µg/mL (≈ 48.1 µM)
Isolate (source animal id): 326
  minimum inhibitory concentration: 16 µg/mL (≈ 48.1 µM)
Isolate (source animal id): 328
  minimum inhibitory concentration: 16 µg/mL (≈ 48.1 µM)
Isolate (source animal id): 329
  minimum inhibitory concentration: 16 µg/mL (≈ 48.1 µM)
Isolate (source animal id): 333
  minimum inhibitory concentration: 16 µg/mL (≈ 48.1 µM)
Isolate (source animal id): 335
  minimum inhibitory concentration: 16 µg/mL (≈ 48.1 µM)
Isolate (source animal id): 338
  minimum inhibitory concentration: 16 µg/mL (≈ 48.1 µM)
